Source: US11312719B2, “9-substituted amino triazolo quinazoline derivatives as adenosine receptor antagonists, pharmaceutical compositions and their use” (Merck Sharp & Dohme Corp., priority 2018, dated 2022)

How the values were obtained:
human A2A receptors = human A2A receptors (Homo sapiens (Human), UniProt P29274); assay: A2A antagonism in cAMP cell-based assay (LANCE cAMP, HEK293); conditions: HEK293 cells expressing human A2A receptor
Summary of the method: (§1)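 HEK293 cells expressing human A2A or A2B, in HBSS/5 mM HEPES/200 nM rolipram, were preincubated with compound (0.5–10,000 nM, 0.25% DMSO) 30 min at 37° C. Adenosine was then added from 300 nM (A2A) or 600 nM (A2B) solution for 30 min.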

human A2B receptors = human A2B receptors (Homo sapiens (Human), UniProt P29275); assay: A2B antagonism in cAMP cell-based assay (LANCE cAMP, HEK293); conditions: HEK293 cells expressing human A2B receptor; for A2B cAMP % Inh. @10000 nM: at 10000 nM
human A2B receptors, sequence (P29275 whole entry): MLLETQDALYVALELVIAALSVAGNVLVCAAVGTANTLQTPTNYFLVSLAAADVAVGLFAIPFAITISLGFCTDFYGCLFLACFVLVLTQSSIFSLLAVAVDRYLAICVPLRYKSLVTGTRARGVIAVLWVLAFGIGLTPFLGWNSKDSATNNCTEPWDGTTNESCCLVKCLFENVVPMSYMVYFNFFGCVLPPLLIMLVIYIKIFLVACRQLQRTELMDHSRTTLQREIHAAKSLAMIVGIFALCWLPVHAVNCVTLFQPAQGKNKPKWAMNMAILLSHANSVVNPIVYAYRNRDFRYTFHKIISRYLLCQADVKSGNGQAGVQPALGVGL
Summary of the method: as §1

human A2A receptors, sequence (P29274 whole entry): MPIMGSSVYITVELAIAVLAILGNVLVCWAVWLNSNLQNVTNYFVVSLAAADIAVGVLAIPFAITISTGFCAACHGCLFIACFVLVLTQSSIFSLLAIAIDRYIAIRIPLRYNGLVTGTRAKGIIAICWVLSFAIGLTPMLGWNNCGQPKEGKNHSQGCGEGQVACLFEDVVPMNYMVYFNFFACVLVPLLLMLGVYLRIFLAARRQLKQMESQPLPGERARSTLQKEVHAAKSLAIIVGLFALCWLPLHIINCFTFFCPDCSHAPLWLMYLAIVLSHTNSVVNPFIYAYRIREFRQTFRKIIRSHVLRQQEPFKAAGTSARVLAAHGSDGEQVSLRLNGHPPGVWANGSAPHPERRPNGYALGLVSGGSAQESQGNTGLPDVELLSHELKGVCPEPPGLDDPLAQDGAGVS

Row | Compound | IC50 (human A2A receptors) [nM] | IC50 (human A2B receptors) [nM] | A2B cAMP % Inh. @10000 nM (human A2B receptors) [% Inh.]
1 | COc1cc(F)cc2c1nc(N)n1nc([C@@H]3CCCN(c4cnn(C(C)C(C)O)c4)C3)nc21 (single isomer, unassigned) [Example 202, (2S,3R or 2R,3S)-3-(4-((R)-3-(5-amino-9-fluoro-7-methoxy-[1,2,4]triazolo[1,5-c]quinazolin-2-yl)piperidin-1-yl)-1H-pyrazol-1-yl)butan-2-ol] | 1.4 | 62.4 | –
2 | Cc1nn(C(C)C(C)O)cc1N1CC(C)CC(c2nc3c4cc(F)cc(F)c4nc(N)n3n2)C1 (single isomer, unassigned) [Example 212, (2S,3S or 2R,3R)-3-(4-((3R,5S or 3S,5R)-3-(5-amino-7,9-difluoro-[1,2,4]triazolo[1,5-c]quinazolin-2-yl)-5-methylpiperidin-1-yl)-3-methyl-1H-pyrazol-1-yl)butan-2-ol] | 122 | – | 27
3 | CC1CCC(c2nc3c4cc(F)cc(F)c4nc(N)n3n2)CN1c1cnn(CC(C)(O)CO)c1 (single isomer, unassigned) [Example 258, (R or S)-2-(4-((2R,5S or 2S,5R)-5-(5-amino-7,9-difluoro-[1,2,4]triazolo[1,5-c]quinazolin-2-yl)-2-methylpiperidin-1-yl)-1H-pyrazol-1-yl)-2-methylpropane-1,2-diol] | 2.3 | 8.1 | –
4 | COc1cc(F)cc2c1nc(N)n1nc(C3CC(C)CN(c4cn(C(C)(C)C(C)O)nc4C)C3)nc21 (single isomer, unassigned) [Example 205, (R or S)-3-(4-((3R,5S or 3S,5R)-3-(5-amino-9-fluoro-7-methoxy-[1,2,4]triazolo[1,5-c]quinazolin-2-yl)-5-methylpiperidin-1-yl)-3-methyl-1H-pyrazol-1-yl)-3-methylbutan-2-ol] | 7 | 1150 | –
5 | COc1cc2nc(N)n3nc(C4CCC(C)N(c5cnn(C(C)(C)C(C)O)c5)C4)nc3c2cc1F (single isomer, unassigned) [Example 264, (R or S)-3-(4-((2S,5R or 2R,5S)-5-(5-amino-9-fluoro-8-methoxy-[1,2,4]triazolo[1,5-c]quinazolin-2-yl)-2-methylpiperidin-1-yl)-1H-pyrazol-1-yl)-3-methylbutan-2-ol] | 3 | 14.3 | –
6 | (S or R)-1-(4-((2S,5R or 2R5S)-5-(5-amino-9-fluoro- 8-methoxy-[1,2,4]triazolo[1,5-c]quinazolin-2-yl)-2- methylpiperidin-1-yl)-1H-pyrazol-1-yl)propan-2-ol [Example 241] | 1.3 | 21.7 | –
7 | CC(O)C(C)n1cc(N2CCC[C@@H](c3nc4c5cc(F)cc(F)c5nc(N)n4n3)C2)cn1 (single isomer, unassigned) [Example 204, (2S,3R or 2R,3S)-3-(4-((R)-3-(5-amino-7,9-difluoro-[1,2,4]triazolo[1,5-c]quinazolin-2-yl)piperidin-1-yl)-1H-pyrazol-1-yl)butan-2-ol] | 7.8 | 87.7 | –
8 | (R or S)-1-(4-((2S,5R or 2R5S)-5-(5-amino-9-fluoro- 8-methoxy-[1,2,4]triazolo[1,5-c]quinazolin-2-yl)-2- methylpiperidin-1-yl)-1H-pyrazol-1-yl)propan-2-ol [Example 240] | 1.2 | 22.6 | –
9 | CC(O)C(C)n1cc(N2CC(c3nc4c5cc(F)cc(F)c5nc(N)n4n3)CCC2C)cn1 (single isomer, unassigned) [Example 233, (2R,3R or 2S,3S)-3-(4-((2S,5R or 2R,5S)-5-(5-amino-7,9-difluoro-[1,2,4]triazolo[1,5-c]quinazolin-2-yl)-2-methylpiperidin-1-yl)-1H-pyrazol-1-yl)butan-2-ol] | 0.7 | 5.6 | –
10 | COc1cc2nc(N)n3nc([C@@H]4C[C@H](C)CN(c5cn([C@@H](C)[C@H](C)O)nc5C)C4)nc3c2cc1F (single isomer, unassigned) [Example 208, (2S,3S or 2R,3R)-3-(4-((3R,5S or 3S,5R)-3-(5-amino-9-fluoro-8-methoxy-[1,2,4]triazolo[1,5-c]quinazolin-2-yl)-5-methylpiperidin-1-yl)-3-methyl-1H-pyrazol-1-yl)butan-2-ol] | 0.7 | 2800 | –
11 | COc1cc2nc(N)n3nc(C4CCC(C)N(c5cnn(C(C)C(C)O)c5)C4)nc3c2cc1F (single isomer, unassigned) [Example 236, (2S,3R or 2R,3S)-3-(4-((2S,5R or 2R,5S)-5-(5-amino-9-fluoro-8-methoxy-[1,2,4]triazolo[1,5-c]quinazolin-2-yl)-2-methylpiperidin-1-yl)-1H-pyrazol-1-yl)butan-2-ol] | 1 | 5.1 | –
12 | Cc1c(N2CC(C)CC(c3nc4c5cc(F)cc(F)c5nc(N)n4n3)C2)cnn1C(C)C(C)O (single isomer, unassigned) [Example 219, (2S,3S or 2R,3R)-3-(4-((3S,5R or 3R,5S)-3-(5-amino-7,9-difluoro-[1,2,4]triazolo[1,5-c]quinazolin-2-yl)-5-methylpiperidin-1-yl)-5-methyl-1H-pyrazol-1-yl)butan-2-ol] | 247 | – | 27
13 | COc1cc2nc(N)n3nc(C4CCC(C)N(c5cnn(CC(C)(O)CO)c5)C4)nc3c2cc1F (single isomer, unassigned) [Example 252] | 95 | 8160 | –
14 | CC(O)C(C)n1cc(N2CC(c3nc4c5cc(F)cc(F)c5nc(N)n4n3)CCC2C)cn1 (single isomer, unassigned) [Example 232, (2S,3S or 2R,3R)-3-(4-((2S,5R or 2R,5S)-5-(5-amino-7,9-difluoro-[1,2,4]triazolo[1,5-c]quinazolin-2-yl)-2-methylpiperidin-1-yl)-1H-pyrazol-1-yl)butan-2-ol] | 1.3 | 12.7 | –

The remaining compounds from weak to strong by IC50 (human A2A receptors), led by results:

Row | IC50 (human A2A receptors) [nM] | IC50 (human A2B receptors) [nM] | A2B cAMP % Inh. @10000 nM (human A2B receptors) [% Inh.] | Compound
15 | 60.5 | – | 14 | COc1cc2nc(N)n3nc(C4CC(C)CN(c5cnn(C(C)(C)CO)c5)C4)nc3c2cc1F (single isomer, unassigned) [Example 172, 2-(4-((3S,5R or 3R,5S)-3-(5-amino-9-fluoro-8-methoxy-[1,2,4]triazolo[1,5-c]quinazolin-2-yl)-5-methylpiperidin-1-yl)-1H-pyrazol-1-yl)-2-methylpropan-1-ol]
16 | 7.4 | 720 | – | CC(C)(O)Cn1cc(N2CCC[C@@H](c3nc4c5cc(F)c(OC(F)F)cc5nc(N)n4n3)C2)cn1 [Example 153, (R)-1-(4-(3-(5-amino-8-(difluoromethoxy)-9-fluoro-[1,2,4]triazolo[l,5-c]quinazolin-2-yl)piperidin-l-yl)-1H-pyrazol-1-yl)-2-methylpropan-2-ol]
17 | 3.7 | 475 | – | COc1cc2nc(N)n3nc([C@@H]4CCCN(c5cnn(C(C)C(C)O)c5C)C4)nc3c2cc1F (single isomer, unassigned) [Example 196, (2R,3R or 2S,3S)-3-(4-((R)-3-(5-amino-9-fluoro-8-methoxy-[1,2,4]triazolo[1,5-c]quinazolin-2-yl)piperidin-1-yl)-5-methyl-1H-pyrazol-1-yl)butan-2-ol]
18 | 2.3 | 11.8 | – | CC1CCC(c2nc3c4cc(F)cc(F)c4nc(N)n3n2)CN1c1cnn(CC(C)(O)CO)c1 (single isomer, unassigned) [Example 259, (S or R)-2-(4-((2R,5S or 2S,5R)-5-(5-amino-7,9-difluoro-[1,2,4]triazolo[1,5-c]quinazolin-2-yl)-2-methylpiperidin-1-yl)-1H-pyrazol-1-yl)-2-methylpropane-1,2-diol]
19 | 1.2 | 11.3 | – | COc1cc2nc(N)n3nc(C4CC(C)CN(c5cnn(C(C)(C)CO)c5)C4)nc3c2cc1F (single isomer, unassigned) [Example 171, 2-(4-((3R,5S or 3S,5R)-3-(5-amino-9-fluoro-8-methoxy-[1,2,4]triazolo[1,5-c]quinazolin-2-yl)-5-methylpiperidin-1-yl)-1H-pyrazol-1-yl)-2-methylpropan-1-ol]
20 | 1.1 | 161 | – | Cc1c(N2CC(C)CC(c3nc4c5cc(F)cc(F)c5nc(N)n4n3)C2)cnn1C(C)C(C)O (single isomer, unassigned) [Example 217, (2R,3R or 2S,3S)-3-(4-((3R,5S or 3S,5R)-3-(5-amino-7,9-difluoro-[1,2,4]triazolo[1,5-c]quinazolin-2-yl)-5-methylpiperidin-1-yl)-5-methyl-1H-pyrazol-1-yl)butan-2-ol]
21 | 0.8 | 16.1 | – | COc1cc2nc(N)n3nc([C@@H]4CC[C@H](C)N(c5cnn([C@@H](C)[C@H](C)O)c5)C4)nc3c2cc1F (single isomer, unassigned) [Example 228, (2S,3S or 2R,3R)-3-(4-((2S,5R or 2R,5S)-5-(5-amino-9-fluoro-8-methoxy-[1,2,4]triazolo[1,5-c]quinazolin-2-yl)-2-methylpiperidin-1-yl)-1H-pyrazol-1-yl)butan-2-ol]
22 | 0.8 | 72.4 | – | Cc1nn(C(C)C(C)O)cc1N1CCC[C@@H](c2nc3c4cc(F)cc(F)c4nc(N)n3n2)C1 (single isomer, unassigned) [Example 192, (2R,3R or 2S,3S)-3-(4-((R)-3-(5-amino-7,9-difluoro-[1,2,4]triazolo[1,5-c]quinazolin-2-yl)piperidin-1-yl)-3-methyl-1H-pyrazol-1-yl)butan-2-ol]
23 | 0.5 | 53.4 | – | COc1cc(F)cc2c1nc(N)n1nc([C@@H]3CCCN(c4cn(C(C)C(C)O)nc4C)C3)nc21 (single isomer, unassigned) [Example 189, (2S,3S or 2R,3R)-3-(4-((R)-3-(5-amino-9-fluoro-7-methoxy-[1,2,4]triazolo[1,5-c]quinazolin-2-yl)piperidin-1-yl)-3-methyl-1H-pyrazol-1-yl)butan-2-ol]
